One data set has as its system Dd2 parent parasites. As to the kind of experiment: Parasite proliferation assay, Dd2 parent. Particulars: Dd2 parent; mean ± SEM; read-out: IC50 value, growth inhibition. It counts as cell-based, Plasmodium falciparum.
The subject of data set [1] is MMV007839-selected culture A (PfFNT Gly107Ser). As to the kind of experiment: Parasite proliferation assay, MMV007839-selected culture A. It counts as cell-based, Plasmodium falciparum. As to the method:
(§1) Parasite proliferation was measured in 96-well plates using a fluorescent DNA-intercalating dye. The assays were initiated with erythrocytes infected with predominantly ring-stage parasites, and the starting parasitaemia was 0.5–1% and the haematocrit was 1%.
(§2) For MMV007839-selected culture A, the drug concentration was increased by 5 nM increments on Day 18, Day 21, and every two days thereafter. […] The cultures were provided with fresh medium and blood and diluted to reduce the parasitaemia as needed.

Data set [2] concerns MMV007839-selected culture B (PfFNT Gly107Ser). The data set is described as follows: Parasite proliferation assay, MMV007839-selected culture B. The class given is cell-based, Plasmodium falciparum. Particulars: MMV007839-selected culture B; mean ± SEM; read-out: IC50 value, growth inhibition. As for the experimental part: as §1, §2
The target in the next data set is T1, native PfFNT (Plasmodium falciparum, UniProt O77389).
T1 construct: expressed in transfected cells; host or cells: Xenopus laevis oocytes (cRNA microinjected, 30 ng)
T1 sequence (O77389 whole entry): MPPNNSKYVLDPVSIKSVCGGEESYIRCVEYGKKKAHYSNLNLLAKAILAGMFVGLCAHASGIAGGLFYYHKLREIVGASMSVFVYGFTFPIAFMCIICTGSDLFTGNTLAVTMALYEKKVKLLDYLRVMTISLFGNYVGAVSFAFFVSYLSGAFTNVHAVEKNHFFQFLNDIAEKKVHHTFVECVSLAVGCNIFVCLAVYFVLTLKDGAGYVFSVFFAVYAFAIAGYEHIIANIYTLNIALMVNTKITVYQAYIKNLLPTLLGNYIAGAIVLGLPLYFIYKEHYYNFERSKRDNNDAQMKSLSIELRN
The class given is cell-based. The conditions noted are these: native PfFNT in Xenopus oocytes; pH 6.4, 27.5°C, 10 min; mean ± SEM, n = 4; read-out: IC50, inhibition of PfFNT-mediated L-[14C]lactate transport. As for the experimental part:
(§3) The PfFNT-mediated uptake of L-[^14C]lactate by oocytes expressing native PfFNT (black symbols) or oocytes expressing PfFNT^Gly107Ser (white symbols) was measured in the presence of a range of different concentrations of MMV007839 (A) and MMV000972 (B). […] To enable a visual comparison between the native PfFNT and PfFNT^Gly107Ser datasets, only part of the concentration range used for the latter is shown in the main panels. The insets show the data obtained for PfFNT^Gly107Ser over the full concentration range tested. In all cases, the data are averaged from four independent experiments (using oocytes from different frogs) and are shown ± SEM. The uptake was measured at 27.5°C over 10 min at pH 6.4 using 2.7 μM L-[^14C]lactate and 600 μM unlabelled L-lactate.
(§4) The oocyte expression vectors containing PfFNT, PfENT1 and PfCRT were made previously. […] The uptake of radiolabelled substrates was measured 2–5 days post-injection at 27.5°C in ND96 buffer (containing 96 mM NaCl, 2 mM KCl, 1 mM MgCl2, 1.8 mM CaCl2, 10 mM MES and 10 mM Tris-base; pH-adjusted to the value specified in the relevant Figure legends). […] The oocytes were then transferred to separate wells of a 96-well plate, lysed with 10% SDS, and the radioactivity measured as described previously.

The target in the next data set is T2, PfFNT^Gly107Ser (Plasmodium falciparum, UniProt O77389, G107S).
T2 construct: expressed in transfected cells; host or cells: Xenopus laevis oocytes (cRNA microinjected, 30 ng)
T2 sequence (O77389 1-309 G107S): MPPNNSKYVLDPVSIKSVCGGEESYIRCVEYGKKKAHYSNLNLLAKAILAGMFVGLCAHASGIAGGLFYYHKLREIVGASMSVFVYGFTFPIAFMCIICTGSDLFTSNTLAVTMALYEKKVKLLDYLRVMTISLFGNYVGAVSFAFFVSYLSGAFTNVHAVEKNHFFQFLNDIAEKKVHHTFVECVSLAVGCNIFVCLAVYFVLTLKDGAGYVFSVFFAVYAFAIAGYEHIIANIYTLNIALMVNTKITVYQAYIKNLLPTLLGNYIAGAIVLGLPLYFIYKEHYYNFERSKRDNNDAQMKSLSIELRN
As to the kind of experiment: PfFNT-mediated L-[14C]lactate uptake by Xenopus oocytes expressing PfFNT Gly107Ser. It counts as cell-based. Particulars: PfFNT Gly107Ser in Xenopus oocytes; pH 6.4, 27.5°C, 10 min; mean ± SEM, n = 4; read-out: IC50, inhibition of PfFNT-mediated L-[14C]lactate transport. As to the method: as §3, §4

For data set [3], the system named is PfCRT (from the chloroquine-resistant Dd2 strain). The data set is described as follows: [3H]chloroquine uptake by Xenopus oocytes expressing PfCRT. The conditions noted are these: 1 μM and 4 μM; pH 5.5. The class given is cell-based, Plasmodium falciparum. From the text:
(§5) (PfCRT; from the chloroquine-resistant Dd2 strain) and on [^3H]hypoxanthine transport by oocytes expressing the P. falciparum equilibrative nucleoside/nucleobase transporter PfENT1 [27, 28].
The oocyte expression vectors containing PfFNT, PfENT1 and PfCRT were made previously. The Gly107Ser mutant form of PfFNT was generated through site-directed mutagenesis of the oocyte expression vector containing wild-type (3D7) PfFNT using primers 9 and 10 (S2 Table). Oocytes were harvested from adult female Xenopus laevis frogs and prepared as described previously. cRNA was made using the mMessage mMachine T7 transcription kit and the MEGAclear kit (Ambion) and microinjected into oocytes as outlined elsewhere. […] The uptake of radiolabelled substrates was measured 2–5 days post-injection at 27.5°C in ND96 buffer (containing 96 mM NaCl, 2 mM KCl, 1 mM MgCl2, 1.8 mM CaCl2, 10 mM MES and 10 mM Tris-base; pH-adjusted to the value specified in the relevant Figure legends). […] The oocytes were then transferred to separate wells of a 96-well plate, lysed with 10% SDS, and the radioactivity measured as described previously.
The data are averaged from four to five independent experiments (performed using oocytes from different frogs) and are shown + SEM. In B, the uptake of [^3H]hypoxanthine (0.36 μM) was measured over 30 min at pH 6.0. […]

The next data set has as its system PfENT1. As to the kind of experiment: [3H]hypoxanthine uptake by Xenopus oocytes expressing PfENT1. It counts as cell-based, Plasmodium falciparum.
Source text: as §5
The oocyte expression vectors containing PfFNT, PfENT1 and PfCRT were made previously. The Gly107Ser mutant form of PfFNT was generated through site-directed mutagenesis of the oocyte expression vector containing wild-type (3D7) PfFNT using primers 9 and 10 (S2 Table). Oocytes were harvested from adult female Xenopus laevis frogs and prepared as described previously. cRNA was made using the mMessage mMachine T7 transcription kit and the MEGAclear kit (Ambion) and microinjected into oocytes as outlined elsewhere. The amount of cRNA injected (per oocyte) was 30 ng for PfFNT, 10 ng for PfENT1, and 20 ng for PfCRT. The uptake of radiolabelled substrates was measured 2–5 days post-injection at 27.5°C in ND96 buffer (containing 96 mM NaCl, 2 mM KCl, 1 mM MgCl2, 1.8 mM CaCl2, 10 mM MES and 10 mM Tris-base; pH-adjusted to the value specified in the relevant Figure legends). […] Each experiment used ten oocytes for each condition tested. The influx of the radiolabelled substrate was halted by removing the reaction buffer and washing the oocytes twice in ice-cold ND96 buffer (3.5 mL). The oocytes were then transferred to separate wells of a 96-well plate, lysed with 10% SDS, and the radioactivity measured as described previously.
The data are averaged from four to five independent experiments (performed using oocytes from different frogs) and are shown + SEM. In B, the uptake of [^3H]hypoxanthine (0.36 μM) was measured over 30 min at pH 6.0. […] The data are averaged from three to six independent experiments (performed using oocytes from different frogs) and are shown + SEM. […] (TIF) Click here for additional data file.

Another data set relates to non-injected oocytes. The class given is cell-based, Xenopus laevis. Particulars: full range of inhibitor concentrations.
In the next data set the test system is 3D7 parasites. The conditions noted are these: ref http://www.mmv.org/research-development/malaria-box-supporting-information; read-out: IC50 against 3D7 parasites, other groups; cited from earlier work.
For data set [4] the following is noted: ref [36]; cited from earlier work.
The subject of data set [5] is isolated 3D7 P. falciparum trophozoites. As to the kind of experiment: L-[14C]lactate uptake by isolated 3D7 trophozoites. Particulars: pH 6.1, 4°C, 20 s.
The test system of the next data set is Dd2 parental parasites. As to the kind of experiment: L-[14C]lactate uptake by isolated Dd2 parental parasites. Particulars: read-out: IC50, inhibition of L-[14C]lactate uptake; Dd2 (parental) parasites; pH 6.1, 4°C, 20 s; mean ± SEM.
Data set [6] concerns PfFNT^Gly107Ser mutant parasites (MMV007839-selected culture B). The data set is described as follows: L-[14C]lactate uptake by isolated PfFNT Gly107Ser mutant parasites. The conditions noted are these: read-out: IC50, inhibition of L-[14C]lactate transport, pH 6.1, 4°C, 20 s, mean ± SEM.
In data set [7] the test system is 3D7 P. falciparum trophozoites. As to the kind of experiment: Cytosolic pH (pHcyt) measurement in BCECF-loaded saponin-isolated trophozoites.

As usually defined, the IC50 is the concentration that inhibits the measured activity by half.

The structures appear in SMILES notation. Bounds are passed on as bounds.

Method for Dd2 parent parasites: Parasite proliferation was measured in 96-well plates using a fluorescent DNA-intercalating dye [45]. The assays were initiated with erythrocytes infected with predominantly ring-stage parasites, and the starting parasitaemia was 0.5–1% and the haematocrit was 1%.

For `O=C1CC(O)(C(F)(F)C(F)(F)F)Oc2ccccc21` (stereo not drawn) [MMV000972], the IC50 with Dd2 parent parasites is 1.8 ± 0.2 µM; in data set [1] (MMV007839-selected culture A, mean ± SEM, read-out: IC50 value, growth inhibition), 59.6 ± 0.4 µM; in data set [2], 59.7 ± 1.4 µM; on native PfFNT, 0.05 ± 0.001 µM; on PfFNT^Gly107Ser, 6.3 ± 0.9 µM; in the data set with 3D7 parasites, 2.6 µM. The 50% inhibitory concentration (IC50) in the data set on Dd2 parental parasites stood at 0.049 ± 0.014 µM; in data set [6] it was 15.2 ± 1.9 µM. For the same molecule, in data set [1] (both MMV007839-selected cultures (A and B) vs Dd2 parent), the “Fold increase of growth IC50 relative to Dd2 parent” value is on record as > 30 fold. Moreover, the “Effect on transport of [3H]chloroquine via PfCRT” value in data set [3] is on record as “not inhibiting”. Also, the “Inhibition of [3H]hypoxanthine uptake by PfENT1-expressing oocytes” value in the data set with PfENT1 (1 μM and 4 μM, pH 6.0, 30 min) is “not inhibiting”. Moreover, the “Effect on [3H]hypoxanthine uptake by PfENT1-expressing oocytes” value in the data set on PfENT1 (1 μM, P < 0.05) is reported as “slight increase”. For the same molecule, the “Effect on L-[14C]lactate transport into control (non-injected) oocytes” value in the data set on non-injected oocytes was “no changes”. Besides, the “Toxicity in Malaria Box toxicity testing” value in data set [4] was “display toxicity in some assays”. Besides, the “Inhibition of L-[14C]lactate influx” value in [5] (0.5 μM) was “complete inhibition”. Further, the “Inhibition of L-[14C]lactate uptake” value in data set [5] (2 μM) is given as “complete inhibition”. Further, in data set [7] (2.5 μM pre-treatment, 10 mM L-lactate, 4°C), the “Lactate-induced abrupt acidification of parasite cytosol after pre-treatment” value is reported as “no such abrupt acidification”. The “Rate of cytosolic acidification after addition of lactate” value in data set [7] (2.5 μM, 4°C, 10 mM L-lactate, mean ± SEM, n = 3) was determined as 0.015 ± 0.006 pH unit/min. The “Rate of cytosolic acidification before addition of lactate” value in [7] (2.5 μM, 4°C, mean ± SEM, n = 3) was found to be 0.012 ± 0.003 pH unit/min. In data set [7] (2.5 μM, glucose (22 mM) restored to glucose-deprived parasites, gradual alkalinisation after initial acidification of ~2 min), the “Cytosolic pH restored after restoration of glucose” value was “approximately 7.1”. Also, in data set [7] (glucose-containing medium, 37°C (Fig 2B,C: 1 μM)), the “Effect on cytosolic pH in glucose-containing medium” value was “cytosolic acidification”.

(Values after paper PMC5298231, “The Malaria Parasite's Lactate Transporter PfFNT Is the Target of Antiplasmodial Compounds Identified in Whole Cell Phenotypic Screens” (PLoS Pathogens, 2017).)
